# Results reported in PubChem BioAssay (NCI).
#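 Interpolation was linear, between the two tested concentrations surrounding the appropriate level; five concentrations were tested over 48 hours in 96-well plates. GI50 is the concentration that inhibits growth by half. TGI marks complete inhibition of growth.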
# Test system: MOLT-4 leukemia
# Assay: growth of human tumour cells (NCI), 48 h
SMILES,GI50,TGI
COc1ccc(C2=C(c3ccc(OC)cc3)C(=O)N3CCCC3C2)cc1 (stereo not drawn),15.5 µM,> 100 µM

# Test system: A549 NSCLC
# Assay: growth of human tumour cells (NCI), 48 h
SMILES,TGI,GI50
COC(=O)c1s/c(=N\C(=S)N(C)C)n(-c2ccc(Cl)cc2)c1C(=O)OC,> 100 µM,–
COC1CCCCN1C(=O)c1ccccc1 (stereo not drawn),> 25.3 µM,–
O=C(O)CCSC(CC1(c2ccc(Cl)cc2)NC(=O)CCS1)c1ccccc1 (stereo not drawn),> 63.1 µM,–
C=C1C(=O)OC2CC(C)C(C(O)CC(C)O)=CCC12 (stereo not drawn),> 80.6 µM,–
O=c1nc(N2CCNCC2)oc2cc(Cl)oc(=O)c12,20.2 µM,–
COc1ccc(C2=C(c3ccc(OC)cc3)C(=O)N3CCCC3C2)cc1 (stereo not drawn),> 100 µM,9.42 µM

# Test system: COLO 205 colon
# Assay: growth of human tumour cells (NCI), 48 h
SMILES,TGI,GI50
COC(=O)c1s/c(=N\C(=S)N(C)C)n(-c2ccc(Cl)cc2)c1C(=O)OC,> 100 µM,–
O=C(O)CCSC(CC1(c2ccc(Cl)cc2)NC(=O)CCS1)c1ccccc1 (stereo not drawn),> 60.6 µM,–
C=C1C(=O)OC2CC(C)C(C(O)CC(C)O)=CCC12 (stereo not drawn),24.6 µM,–
O=c1nc(N2CCNCC2)oc2cc(Cl)oc(=O)c12,19 µM,–
COc1ccc(C2=C(c3ccc(OC)cc3)C(=O)N3CCCC3C2)cc1 (stereo not drawn),> 100 µM,7.43 µM

# Test system: SF-268 CNS
# Assay: growth of human tumour cells (NCI), 48 h
SMILES,TGI,GI50
COC(=O)c1s/c(=N\C(=S)N(C)C)n(-c2ccc(Cl)cc2)c1C(=O)OC,> 100 µM,–
COC1CCCCN1C(=O)c1ccccc1 (stereo not drawn),> 25.3 µM,–
O=C(O)CCSC(CC1(c2ccc(Cl)cc2)NC(=O)CCS1)c1ccccc1 (stereo not drawn),38.4 µM,–
C=C1C(=O)OC2CC(C)C(C(O)CC(C)O)=CCC12 (stereo not drawn),36.4 µM,–
O=c1nc(N2CCNCC2)oc2cc(Cl)oc(=O)c12,15.9 µM,–
COc1ccc(C2=C(c3ccc(OC)cc3)C(=O)N3CCCC3C2)cc1 (stereo not drawn),> 100 µM,16.4 µM

# Test system: MDA-MB-231 breast
# Assay: growth of human tumour cells (NCI), 48 h
SMILES,TGI,GI50
O=C(O)CCSC(CC1(c2ccc(Cl)cc2)NC(=O)CCS1)c1ccccc1 (stereo not drawn),46.6 µM,–
C=C1C(=O)OC2CC(C)C(C(O)CC(C)O)=CCC12 (stereo not drawn),33.8 µM,–
O=c1nc(N2CCNCC2)oc2cc(Cl)oc(=O)c12,35.7 µM,–
COc1ccc(C2=C(c3ccc(OC)cc3)C(=O)N3CCCC3C2)cc1 (stereo not drawn),> 73.9 µM,25.4 µM

# Test system: A498 renal
# Assay: growth of human tumour cells (NCI), 48 h
SMILES,TGI,GI50
COC(=O)c1s/c(=N\C(=S)N(C)C)n(-c2ccc(Cl)cc2)c1C(=O)OC,> 100 µM,–
O=C(O)CCSC(CC1(c2ccc(Cl)cc2)NC(=O)CCS1)c1ccccc1 (stereo not drawn),42.9 µM,–
C=C1C(=O)OC2CC(C)C(C(O)CC(C)O)=CCC12 (stereo not drawn),32.1 µM,–
O=c1nc(N2CCNCC2)oc2cc(Cl)oc(=O)c12,37.9 µM,–
COc1ccc(C2=C(c3ccc(OC)cc3)C(=O)N3CCCC3C2)cc1 (stereo not drawn),> 100 µM,45.9 µM

# Test system: HS 578T breast
# Assay: growth of human tumour cells (NCI), 48 h
SMILES,TGI,GI50
O=C(O)CCSC(CC1(c2ccc(Cl)cc2)NC(=O)CCS1)c1ccccc1 (stereo not drawn),33.4 µM,–
C=C1C(=O)OC2CC(C)C(C(O)CC(C)O)=CCC12 (stereo not drawn),62 µM,–
O=c1nc(N2CCNCC2)oc2cc(Cl)oc(=O)c12,5.9 µM,–
COc1ccc(C2=C(c3ccc(OC)cc3)C(=O)N3CCCC3C2)cc1 (stereo not drawn),> 100 µM,69.5 µM

# Test system: EKVX NSCLC
# Assay: growth of human tumour cells (NCI), 48 h
SMILES,TGI,GI50
COC(=O)c1s/c(=N\C(=S)N(C)C)n(-c2ccc(Cl)cc2)c1C(=O)OC,> 100 µM,–
O=C(O)CCSC(CC1(c2ccc(Cl)cc2)NC(=O)CCS1)c1ccccc1 (stereo not drawn),46.9 µM,–
C=C1C(=O)OC2CC(C)C(C(O)CC(C)O)=CCC12 (stereo not drawn),28.6 µM,–
O=c1nc(N2CCNCC2)oc2cc(Cl)oc(=O)c12,19.4 µM,–
COc1ccc(C2=C(c3ccc(OC)cc3)C(=O)N3CCCC3C2)cc1 (stereo not drawn),> 100 µM,30.2 µM

# Test system: K-562 leukemia
# Assay: growth of human tumour cells (NCI), 48 h
row,SMILES,TGI
1,COC(=O)c1s/c(=N\C(=S)N(C)C)n(-c2ccc(Cl)cc2)c1C(=O)OC,> 100 µM
2,COC1CCCCN1C(=O)c1ccccc1 (stereo not drawn),> 25.3 µM
3,O=C(O)CCSC(CC1(c2ccc(Cl)cc2)NC(=O)CCS1)c1ccccc1 (stereo not drawn),> 100 µM
4,C=C1C(=O)OC2CC(C)C(C(O)CC(C)O)=CCC12 (stereo not drawn),37.1 µM
